What was measured:
Format in all cases: functional
[1] = tested on: U-251; assay: Growth inhibition of human U-251 cells assessed as cell growth at 0.01 uM incubated for 48 hrs by sulforhodamine B assay relative to control; conditions: read-out: Activity
[2] = tested on: K562; assay: Growth inhibition of human K562 cells incubated for 48 hrs by sulforhodamine B assay
[3] = tested on: A549; assay: Growth inhibition of human A549/ATCC cells assessed as cell growth at 1 uM incubated for 48 hrs by sulforhodamine B assay relative to control; conditions: read-out: Activity
[4] = tested on: SK-OV-3; assay: Growth inhibition of human SK-OV-3 cells assessed as cell growth at 0.01 uM incubated for 48 hrs by sulforhodamine B assay relative to control; conditions: read-out: Activity
[5] = tested on: MOLT-4; assay: Growth inhibition of human MOLT-4 cells assessed as cell growth at 1 uM incubated for 48 hrs by sulforhodamine B assay relative to control; conditions: read-out: Activity
[6] = tested on: U-251; assay: Growth inhibition of human U-251 cells incubated for 48 hrs by sulforhodamine B assay
[7] = tested on: SK-OV-3; assay: Growth inhibition of human SK-OV-3 cells assessed as cell growth at 100 uM incubated for 48 hrs by sulforhodamine B assay relative to control; conditions: read-out: Activity
[8] = tested on: CAKI-1; assay: Growth inhibition of human CAKI-1 cells assessed as cell growth at 100 uM incubated for 48 hrs by sulforhodamine B assay relative to control; conditions: read-out: Activity
[9] = tested on: SF-268; assay: Growth inhibition of human SF-268 cells assessed as cell growth at 0.01 uM incubated for 48 hrs by sulforhodamine B assay relative to control; conditions: read-out: Activity
[10] = tested on: SW-620; assay: Growth inhibition of human SW-620 cells assessed as cell growth at 1 uM incubated for 48 hrs by sulforhodamine B assay relative to control; conditions: read-out: Activity
[11] = tested on: NCI/ADR-RES; assay: Growth inhibition of human NCI/ADR-RES cells assessed as cell growth at 0.01 uM incubated for 48 hrs by sulforhodamine B assay relative to control; conditions: read-out: Activity
[12] = tested on: NCI-H23; assay: Growth inhibition of human NCI-H23 cells assessed as cell growth at 1 uM incubated for 48 hrs by sulforhodamine B assay relative to control; conditions: read-out: Activity
[13] = tested on: EKVX; assay: Growth inhibition of human EKVX cells assessed as cell growth at 0.1 uM incubated for 48 hrs by sulforhodamine B assay relative to control; conditions: read-out: Activity
[14] = tested on: A498; assay: Growth inhibition of human A498 cells assessed as cell growth at 1 uM incubated for 48 hrs by sulforhodamine B assay relative to control; conditions: read-out: Activity
[15] = tested on: OVCAR-4; assay: Growth inhibition of human OVCAR-4 cells incubated for 48 hrs by sulforhodamine B assay
[16] = tested on: 786-0; assay: Growth inhibition of human 786-0 cells assessed as cell growth at 1 uM incubated for 48 hrs by sulforhodamine B assay relative to control; conditions: read-out: Activity
[17] = tested on: EKVX; assay: Growth inhibition of human EKVX cells assessed as cell growth at 100 uM incubated for 48 hrs by sulforhodamine B assay relative to control; conditions: read-out: Activity
[18] = tested on: NCI-H460; assay: Growth inhibition of human NCI-H460 cells incubated for 48 hrs by sulforhodamine B assay
[19] = tested on: HL-60(TB); assay: Growth inhibition of human HL-60(TB) cells assessed as cell growth at 0.1 uM incubated for 48 hrs by sulforhodamine B assay relative to control; conditions: read-out: Activity
[20] = tested on: SK-OV-3; assay: Growth inhibition of human SK-OV-3 cells assessed as cell growth at 0.1 uM incubated for 48 hrs by sulforhodamine B assay relative to control; conditions: read-out: Activity
[21] = tested on: SN12C; assay: Growth inhibition of human SN12C cells incubated for 48 hrs by sulforhodamine B assay
[22] = tested on: SF-539; assay: Growth inhibition of human SF-539 cells assessed as cell growth at 1 uM incubated for 48 hrs by sulforhodamine B assay relative to control; conditions: read-out: Activity
[23] = tested on: CCRF-CEM; assay: Growth inhibition of human CCRF-CEM cells assessed as cell growth at 0.01 uM incubated for 48 hrs by sulforhodamine B assay relative to control; conditions: read-out: Activity
[24] = tested on: Malme-3M; assay: Growth inhibition of human Malme-3M cells assessed as cell growth at 0.1 uM incubated for 48 hrs by sulforhodamine B assay relative to control; conditions: read-out: Activity
[25] = tested on: SK-MEL-5; assay: Growth inhibition of human SK-MEL-5 cells incubated for 48 hrs by sulforhodamine B assay
[26] = tested on: UACC-257; assay: Growth inhibition of human UACC-257 cells assessed as cell growth at 1 uM incubated for 48 hrs by sulforhodamine B assay relative to control; conditions: read-out: Activity
[27] = tested on: SNB-19; assay: Growth inhibition of human SNB-19 cells assessed as cell growth at 1 uM incubated for 48 hrs by sulforhodamine B assay relative to control; conditions: read-out: Activity
[28] = tested on: M14; assay: Growth inhibition of human M14 cells assessed as cell growth at 1 uM incubated for 48 hrs by sulforhodamine B assay relative to control; conditions: read-out: Activity
[29] = tested on: Hs-578T; assay: Growth inhibition of human Hs-578T cells assessed as cell growth at 1 uM incubated for 48 hrs by sulforhodamine B assay relative to control; conditions: read-out: Activity
[30] = tested on: SK-OV-3; assay: Growth inhibition of human SK-OV-3 cells incubated for 48 hrs by sulforhodamine B assay
[31] = tested on: SF-295; assay: Growth inhibition of human SF-295 cells assessed as cell growth at 100 uM incubated for 48 hrs by sulforhodamine B assay relative to control; conditions: read-out: Activity
[32] = tested on: UO-31; assay: Growth inhibition of human UO-31 cells assessed as cell growth at 0.01 uM incubated for 48 hrs by sulforhodamine B assay relative to control; conditions: read-out: Activity
[33] = tested on: K562; assay: Growth inhibition of human K562 cells assessed as cell growth at 0.01 uM incubated for 48 hrs by sulforhodamine B assay relative to control; conditions: read-out: Activity
[34] = tested on: RXF 393; assay: Growth inhibition of human RXF 393 cells assessed as cell growth at 100 uM incubated for 48 hrs by sulforhodamine B assay relative to control; conditions: read-out: Activity
[35] = tested on: KM12; assay: Growth inhibition of human KM12 cells assessed as cell growth at 0.1 uM incubated for 48 hrs by sulforhodamine B assay relative to control; conditions: read-out: Activity
[36] = read-out: LC50 (the source's name)
[37] = read-out: pLC50 (the source's name) (converted)

SMILES: CC(=O)Nc1cc(CO[Si](C)(C)C(C)(C)C)cc(NC(=O)c2ccc(C(=O)Nc3cccc(NC(=O)CCCN(C)C)c3)cc2)c1
- growth at 0.01 µM [1]: 101%
- GI50 ([2]; read-out: GI50): > 75 µM
- CC50 [2, 36]: > 75 µM
- TGI ([2]; read-out: TGI): > 75 µM
- GI50 ([2]; read-out: pGI50 (converted)): > 75.9 µM
- CC50 [2, 37]: > 75.9 µM
- TGI ([2]; read-out: pTGI): > 75.9 µM
- growth at 1 µM [3]: 100%
- growth at 0.01 µM [4]: 98%
- growth at 1 µM [5]: 91%
- GI50 ([6]; read-out: GI50): > 75 µM
- CC50 [6, 36]: > 75 µM
- TGI ([6]; read-out: TGI): > 75 µM
- GI50 ([6]; read-out: pGI50 (converted)): > 75.9 µM
- CC50 [6, 37]: > 75.9 µM
- TGI ([6]; read-out: pTGI): > 75.9 µM
- growth at 100 µM [7]: 93%
- growth at 100 µM [8]: 77%
- growth at 0.01 µM [9]: 99%
- growth at 1 µM [10]: 100%
- growth at 0.01 µM [11]: 103%
- growth at 1 µM [12]: 96%
- growth at 0.1 µM [13]: 98%
- growth at 1 µM [14]: 48%
- GI50 ([15]; read-out: GI50): > 75 µM
- LC50 (concentration killing 50% of cells) ([15]; read-out: LC50): > 75 µM
- TGI ([15]; read-out: TGI): > 75 µM
- GI50 ([15]; read-out: pGI50 (converted)): > 75.9 µM
- LC50 (concentration killing 50% of cells) ([15]; read-out: pLC50 (converted)): > 75.9 µM
- TGI ([15]; read-out: pTGI): > 75.9 µM
- growth at 1 µM [16]: 93%
- growth at 100 µM [17]: 82%
- GI50 ([18]; read-out: GI50): > 75 µM
- CC50 [18, 36]: > 75 µM
- TGI ([18]; read-out: TGI): > 75 µM
- GI50 ([18]; read-out: pGI50 (converted)): > 75.9 µM
- CC50 [18, 37]: > 75.9 µM
- TGI ([18]; read-out: pTGI): > 75.9 µM
- growth at 0.1 µM [19]: 97%
- growth at 0.1 µM [20]: 98%
- GI50 ([21]; read-out: GI50): > 75 µM
- CC50 [21, 36]: > 75 µM
- TGI ([21]; read-out: TGI): > 75 µM
- GI50 ([21]; read-out: pGI50 (converted)): > 75.9 µM
- CC50 [21, 37]: > 75.9 µM
- TGI ([21]; read-out: pTGI): > 75.9 µM
- growth at 1 µM [22]: 100%
- growth at 0.01 µM [23]: 97%
- growth at 0.1 µM [24]: 92%
- GI50 ([25]; read-out: GI50): > 75 µM
- LC50 ([25]; read-out: LC50): > 75 µM
- TGI ([25]; read-out: TGI): > 75 µM
- GI50 ([25]; read-out: pGI50 (converted)): > 75.9 µM
- LC50 ([25]; read-out: pLC50 (converted)): > 75.9 µM
- TGI ([25]; read-out: pTGI): > 75.9 µM
- growth at 1 µM [26]: 89%
- growth at 1 µM [27]: 101%
- growth at 1 µM [28]: 101%
- growth at 1 µM [29]: 117%
- GI50 ([30]; read-out: GI50): > 75 µM
- LC50 (concentration killing 50% of cells) ([30]; read-out: LC50): > 75 µM
- TGI ([30]; read-out: TGI): > 75 µM
- GI50 ([30]; read-out: pGI50 (converted)): > 75.9 µM
- LC50 (concentration killing 50% of cells) ([30]; read-out: pLC50 (converted)): > 75.9 µM
- TGI ([30]; read-out: pTGI): > 75.9 µM
- growth at 100 µM [31]: 88%
- growth at 0.01 µM [32]: 83%
- growth at 0.01 µM [33]: 93%
- growth at 100 µM [34]: 83%
- growth at 0.1 µM [35]: 100%
